Test results published in patent publication US20230322717A1, “SOLID FORM OF PYRAZINE SUBSTITUTED NICOTINAMIDE, AND PREPARATION AND USE THEREOF” (Shenzhen TargetRx, Inc., priority 2020, published 2023).
≈ marks a conversion by molar mass, not a printed value. Blank lines part the entries; values can stand above or below the molecule they belong to.

What was measured:
Type in all cases: physicochemical
[1] = Dynamic moisture adsorption and desorption analysis (DVS); details: for crystal form after DVS test (XRPD): before and after DVS test; for hygroscopicity (DVS): moisture range 0% to 90%
Experimental: The instrument model used for dynamic moisture adsorption and desorption analysis was IGA Sorp (Hidentity Isochema). The samples were measured in a gradient mode with a moisture range of 0% to 90%, wherein the humidity increment of each gradient was 10%.

[2] = Stability study of the crystal form I of compound A and the crystal form I of compound A p-toluenesulfonate (HPLC, XRPD)
Experimental: A certain amount of samples of the crystal form I of compound A and the crystal form I of compound A p-toluenesulfonate (Batch No.: PTSA-A1) were placed in a stability test chamber, and kept at 40° C./75%RH and 60° C. for 7 days, respectively. The samples were tested by HPLC and XRPD at various time points.

[3] = Solubility study in SGF, FaSSIF and FeSSIF (HPLC of filtrate, XRPD of solid); details: for Crystal form: XRPD of solid
Experimental: The solubilities of the crystal form I of compound A and the crystal form I of compound A p-toluenesulfonate in SGF (simulated gastric fluid), FaSSIF (fasted state simulated intestinal fluid) and FeSSIF (fed state simulated intestinal fluid) were studied.
The solubilities of samples in SGF, FaSSIF and FeSSIF at 37° C. for 24 hours were determined. 40 mg of the sample was placed in a sample bottle, and 1.5 mL of solvent was added. The mixture was mixed well, and shaken on a shaker at 200 rpm for 24 hours. The suspension was filtered at 0.5, 2 and 24 hours. The filtrate was analyzed by HPLC, and the solid was tested by XRPD.

[4] = Solubility study of the starting material (the crystal form I of compound A) in different solvents
Experimental: About 2 mg of the starting material was weighed and added into a sample bottle, and different solvents were added respectively, until the starting material was dissolved.

[5] = Stability study of the crystal form VI of compound A (high temperature, high humidity, light)

SMILES: Cc1ccc(S(=O)(=O)O)cc1.O=C(Nc1ccc(OC(F)(F)Cl)cc1)c1cnc(N2CC[C@@H](F)C2)c(-c2cnccn2)c1 [(R)-N-(4-(chlorodifluoromethoxy)phenyl)-6-(3-fluoropyrrolidin-1-yl)-5-(pyrazin-2-yl)nicotinamide p-toluenesulfonate]
water absorption ([1]; 0-80%RH): about 0.39%
water absorption ([1]; 0-90%RH): about 0.61%
crystal form after DVS test (XRPD) [1]: not changed
hygroscopicity (DVS) [1]: slightly hygroscopic
crystal form stability (XRPD) ([2]; 7 days at 40° C./75% RH and 60° C.): remained unchanged
crystal form of the undissolved solid (XRPD) ([3]; FaSSIF and FeSSIF for 0.5 hours): changed
solubility compared with the other form ([3]; FaSSIF and FeSSIF vehicles, 24 hours, 37° C.): higher solubility than that of the free base
crystal form of the undissolved solid (XRPD) ([3]; SGF for 24 hours): changed
dependence of solubility on pH ([3]; SGF, FaSSIF, FeSSIF, 37° C.): affected by pH value
solubility in a solution with a higher pH value ([3]; after 2 hours): higher solubility

SMILES: CS(=O)(=O)O.O=C(Nc1ccc(OC(F)(F)Cl)cc1)c1cnc(N2CC[C@@H](F)C2)c(-c2cnccn2)c1 [crystal form I of compound A mesylate, (R)-N-(4-(chlorodifluoromethoxy)phenyl)-6-(3-fluoropyrrolidin-1-yl)-5-(pyrazin-2-yl)nicotinamide mesylate]
water absorption ([1]; 0-80%RH): about 3.6%
water absorption ([1]; 0-90%RH): about 40.3%
crystal form after DVS test (XRPD) [1]: not changed
hygroscopicity (DVS) [1]: hygroscopic

SMILES: O=C(Nc1ccc(OC(F)(F)Cl)cc1)c1cnc(N2CC[C@@H](F)C2)c(-c2cnccn2)c1 [the crystal form I of compound A]
Solubility ([4]; solvent: 2-Butanone): ~73.67 mg/mL (≈ 159000 µM)
Solubility ([4]; solvent: Acetone): ~77 mg/mL (≈ 166000 µM)
Solubility ([4]; solvent: Acetonitrile): ~53.25 mg/mL (≈ 115000 µM)
Solubility ([4]; solvent: Ethanol): ~1.31 mg/mL (≈ 2820 µM)
Solubility ([4]; solvent: Ethyl Acetate): ~49.25 mg/mL (≈ 106000 µM)
Solubility ([4]; solvent: Isobutanol): ~0.73 mg/mL (≈ 1570 µM)
Solubility ([4]; solvent: Isopropyl Acetate): ~22.1 mg/mL (≈ 47600 µM)
Solubility ([4]; solvent: Isopropyl Alcohol): ~0.92 mg/mL (≈ 1980 µM)
Solubility ([4]; solvent: Methanol): ~11.83 mg/mL (≈ 25500 µM)
Solubility ([4]; solvent: Methyl Tert-Butyl Ether): ~2.8 mg/mL (≈ 6040 µM)
Solubility ([4]; solvent: Tetrahydrofuran): ~121 mg/mL (≈ 261000 µM)
Solubility ([4]; solvent: Toluene): ~1.23 mg/mL (≈ 2650 µM)
Solubility (mg/mL) ([4]; solvent: Water): <<0.55 mg/mL

Further lines, results first:

Purity ([2]; 40° C./75% RH, Day 0, HPLC): 96.1%
Purity ([2]; 40° C./75% RH, Day 3, HPLC): 97.1%
Crystal form ([2]; 40° C./75% RH, Day 3, XRPD): Initial crystal form
Purity ([2]; 40° C./75% RH, Day 7, HPLC): 97.1%
Crystal form ([2]; 40° C./75% RH, Day 7, XRPD): Initial crystal form
Purity ([2]; 60° C., Day 0, HPLC): 96.1%
Purity ([2]; 60° C., Day 3, HPLC): 96.7%
Crystal form ([2]; 60° C., Day 3, XRPD): Initial crystal form
Purity ([2]; 60° C., Day 7, HPLC): 97.1%
Crystal form ([2]; 60° C., Day 7, XRPD): Initial crystal form
Solubility ([3]; FaSSIF, 37° C., 0.5 h): 0.0042 mg/mL (≈ 9.05 µM)
pH ([3]; FaSSIF, 37° C., 0.5 h): 6.62
Crystal form ([3]; FaSSIF, 37° C., 0.5 h): Initial crystal form
Solubility ([3]; FaSSIF, 37° C., 2 h): 0.0048 mg/mL (≈ 10.3 µM)
pH ([3]; FaSSIF, 37° C., 2 h): 6.63
Crystal form ([3]; FaSSIF, 37° C., 2 h): Changed
Solubility ([3]; FaSSIF, 37° C., 24 h): 0.0043 mg/mL (≈ 9.27 µM)
pH ([3]; FaSSIF, 37° C., 24 h): 6.63
Crystal form ([3]; FaSSIF, 37° C., 24 h): Changed
Solubility ([3]; FeSSIF, 37° C., 0.5 h): 0.22 mg/mL (≈ 474 µM)
pH ([3]; FeSSIF, 37° C., 0.5 h): 5.04
Crystal form ([3]; FeSSIF, 37° C., 0.5 h): Initial crystal form
Solubility ([3]; FeSSIF, 37° C., 2 h): 0.18 mg/mL (≈ 388 µM)
pH ([3]; FeSSIF, 37° C., 2 h): 5.05
Crystal form ([3]; FeSSIF, 37° C., 2 h): Changed
Solubility ([3]; FeSSIF, 37° C., 24 h): 0.057 mg/mL (≈ 123 µM)
pH ([3]; FeSSIF, 37° C., 24 h): 5.02
Crystal form ([3]; FeSSIF, 37° C., 24 h): Changed
Solubility ([3]; SGF, 37° C., 0.5 h): 0.12 mg/mL (≈ 259 µM)
pH ([3]; SGF, 37° C., 0.5 h): 1.24
Crystal form ([3]; SGF, 37° C., 0.5 h): Initial Crystal form
Solubility ([3]; SGF, 37° C., 2 h): 0.063 mg/mL (≈ 136 µM)
pH ([3]; SGF, 37° C., 2 h): 1.24
Crystal form ([3]; SGF, 37° C., 2 h): Changed
Solubility ([3]; SGF, 37° C., 24 h): 0.046 mg/mL (≈ 99.2 µM)
pH ([3]; SGF, 37° C., 24 h): 1.23
Crystal form ([3]; SGF, 37° C., 24 h): Changed
SMILES: O=C(Nc1ccc(OC(F)(F)Cl)cc1)c1cnc(N2CC[C@@H](F)C2)c(-c2cnccn2)c1 [The crystal form I of compound A]

Appearance ([5]; 0 day): Off-white powder
Content ([5]; 0 day): 99.40%
Crystal form ([5]; 0 day): The crystal form VI
Impurity content ([5]; 0 day): 0.87%
Appearance ([5]; 25° C./92.5%RH, 10 days): Off-white powder
Content ([5]; 25° C./92.5%RH, 10 days): 98.40%
Crystal form ([5]; 25° C./92.5%RH, 10 days): The crystal form VI
Hygroscopic weight gain ([5]; 25° C./92.5%RH, 10 days): 0.34%
Impurity content ([5]; 25° C./92.5%RH, 10 days): 0.80%
Appearance ([5]; 25° C./92.5%RH, 30 days): Off-white powder
Content ([5]; 25° C./92.5%RH, 30 days): 98.80%
Crystal form ([5]; 25° C./92.5%RH, 30 days): The crystal form VI
Hygroscopic weight gain ([5]; 25° C./92.5%RH, 30 days): 2.72%
Impurity content ([5]; 25° C./92.5%RH, 30 days): 0.85%
Appearance ([5]; 40° C./75%RH, 10 days): Off-white powder
Content ([5]; 40° C./75%RH, 10 days): 98.40%
Crystal form ([5]; 40° C./75%RH, 10 days): The crystal form VI
Hygroscopic weight gain ([5]; 40° C./75%RH, 10 days): 1.26%
Impurity content ([5]; 40° C./75%RH, 10 days): 0.79%
Appearance ([5]; 40° C./75%RH, 30 days): Off-white powder
Content ([5]; 40° C./75%RH, 30 days): 101.40%
Crystal form ([5]; 40° C./75%RH, 30 days): The crystal form VI
Hygroscopic weight gain ([5]; 40° C./75%RH, 30 days): 1.26%
Impurity content ([5]; 40° C./75%RH, 30 days): 0.80%
Appearance ([5]; 60° C., 10 days): Off-white powder
Content ([5]; 60° C., 10 days): 99.90%
Crystal form ([5]; 60° C., 10 days): The crystal form VI
Impurity content ([5]; 60° C., 10 days): 0.81%
Appearance ([5]; 60° C., 30 days): Off-white powder
Content ([5]; 60° C., 30 days): 96.90%
Crystal form ([5]; 60° C., 30 days): The crystal form VI
Impurity content ([5]; 60° C., 30 days): 0.84%
Appearance ([5]; Light, 10 days): Off-white powder
Content ([5]; Light, 10 days): 99.70%
Crystal form ([5]; Light, 10 days): The crystal form VI
Impurity content ([5]; Light, 10 days): 0.85%
SMILES: O=C(Nc1ccc(OC(F)(F)Cl)cc1)c1cnc(N2CC[C@@H](F)C2)c(-c2cnccn2)c1 [the crystal form VI of compound A]
